Data published in US20100035867A1 (priority 2006, published 2010).

What was measured:
[1] = target: T1, guanylyl cyclase type C (GC-C) (Homo sapiens, UniProt P25092); experiment: Guanylin-induced activation of GC-C in T84 cells (cyclic GMP accumulation)
[2] = test system: adenylyl cyclase or guanylyl cyclase; format: cell-based; conditions: read-out: typical IC50
[3] = target: T1, guanylyl cyclase type C (GC-C); experiment: STa-induced activation of GC-C in T84 cells (cyclic GMP accumulation, ELISA); format: cell-based; design: endogenous in cells; host or cells: T84 cells
[4] = target: T2, guanylyl cyclase type B (GC-B) (Rattus norvegicus, UniProt P16067); experiment: CNP-induced cyclic GMP accumulation in RFL-6 fibroblast cells; conditions: RFL-6 cells, 1 μM CNP, 50 μM compound
T2 sequence (P16067 17-1047): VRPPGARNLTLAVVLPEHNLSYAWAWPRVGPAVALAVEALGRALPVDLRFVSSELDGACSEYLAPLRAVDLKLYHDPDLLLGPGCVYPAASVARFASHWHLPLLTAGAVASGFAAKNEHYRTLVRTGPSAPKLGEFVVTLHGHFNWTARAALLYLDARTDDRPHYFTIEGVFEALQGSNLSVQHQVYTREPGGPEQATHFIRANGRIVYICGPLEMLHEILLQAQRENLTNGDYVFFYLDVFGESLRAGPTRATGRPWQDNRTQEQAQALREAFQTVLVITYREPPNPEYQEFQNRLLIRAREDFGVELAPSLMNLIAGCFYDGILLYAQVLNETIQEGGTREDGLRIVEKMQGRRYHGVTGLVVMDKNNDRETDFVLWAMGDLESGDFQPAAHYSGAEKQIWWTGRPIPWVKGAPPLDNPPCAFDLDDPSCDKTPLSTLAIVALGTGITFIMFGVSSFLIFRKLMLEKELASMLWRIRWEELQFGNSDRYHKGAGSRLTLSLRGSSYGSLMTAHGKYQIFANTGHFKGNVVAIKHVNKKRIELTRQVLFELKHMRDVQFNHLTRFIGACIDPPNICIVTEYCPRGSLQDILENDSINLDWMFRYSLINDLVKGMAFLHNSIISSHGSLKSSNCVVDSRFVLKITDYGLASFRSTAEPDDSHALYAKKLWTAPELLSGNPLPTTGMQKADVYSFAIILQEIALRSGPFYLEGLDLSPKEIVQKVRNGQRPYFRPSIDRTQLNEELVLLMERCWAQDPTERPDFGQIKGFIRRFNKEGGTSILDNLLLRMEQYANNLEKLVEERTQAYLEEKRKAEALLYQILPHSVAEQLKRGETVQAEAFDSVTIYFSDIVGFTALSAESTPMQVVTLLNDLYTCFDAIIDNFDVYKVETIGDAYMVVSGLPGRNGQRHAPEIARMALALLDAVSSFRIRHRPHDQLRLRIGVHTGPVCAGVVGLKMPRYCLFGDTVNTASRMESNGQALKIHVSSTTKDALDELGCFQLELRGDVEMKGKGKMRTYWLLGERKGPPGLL

[5] = target: T3, membrane guanylyl cyclase (guanylyl cyclase type B, GC-B) (Homo sapiens, UniProt P20594); experiment: CNP-induced cyclic GMP accumulation in BE-2(C) neuroblastoma cells
T3 sequence (P20594 23-1047): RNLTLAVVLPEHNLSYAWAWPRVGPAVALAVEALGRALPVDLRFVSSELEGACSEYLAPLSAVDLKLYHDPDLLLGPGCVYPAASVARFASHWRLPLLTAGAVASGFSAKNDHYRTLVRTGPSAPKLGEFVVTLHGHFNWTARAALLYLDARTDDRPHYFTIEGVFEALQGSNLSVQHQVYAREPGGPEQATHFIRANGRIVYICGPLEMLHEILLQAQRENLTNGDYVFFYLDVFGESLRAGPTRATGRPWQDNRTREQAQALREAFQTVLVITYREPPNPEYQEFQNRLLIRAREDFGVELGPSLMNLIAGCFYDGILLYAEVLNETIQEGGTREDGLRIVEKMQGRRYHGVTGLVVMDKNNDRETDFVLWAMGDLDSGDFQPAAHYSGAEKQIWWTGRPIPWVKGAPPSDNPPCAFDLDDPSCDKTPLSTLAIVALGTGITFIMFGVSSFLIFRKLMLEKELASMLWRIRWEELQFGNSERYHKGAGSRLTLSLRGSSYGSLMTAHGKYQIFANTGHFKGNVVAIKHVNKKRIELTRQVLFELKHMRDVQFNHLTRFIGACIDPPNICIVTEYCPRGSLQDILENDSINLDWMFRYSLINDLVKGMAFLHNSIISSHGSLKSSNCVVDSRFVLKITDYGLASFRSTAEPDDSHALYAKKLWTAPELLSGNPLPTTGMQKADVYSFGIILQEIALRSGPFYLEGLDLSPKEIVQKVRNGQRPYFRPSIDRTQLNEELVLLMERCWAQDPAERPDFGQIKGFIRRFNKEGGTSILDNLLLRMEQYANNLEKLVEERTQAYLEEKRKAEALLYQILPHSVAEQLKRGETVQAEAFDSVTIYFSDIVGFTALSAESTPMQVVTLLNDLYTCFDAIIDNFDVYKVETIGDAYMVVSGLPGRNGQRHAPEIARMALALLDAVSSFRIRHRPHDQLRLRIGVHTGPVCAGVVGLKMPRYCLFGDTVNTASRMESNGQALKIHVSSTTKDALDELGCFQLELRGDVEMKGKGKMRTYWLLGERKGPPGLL

[6] = test system: rabbit intestinal loop; experiment: Liquid secretion induced by STa in a rabbit intestinal loop model; format: in vivo
Experimental: The test was performed by the method known in the art (Alcantara, C. S.; Jin, X. H.; Brito, G. A.; Carneiro-Filho, B. A.; Barrett, L. J.; Carey, R. M.; Guerrant, R. L., Angiotensin II subtype 1 receptor blockade inhibits Clostridium difficile toxin A-induced intestinal secretion in a rabbit model. J Infect Dis 2005, 191, (12), 2090-6). Volume of liquid in the loop was divided by the length of the loop and the normalized value was used to assess liquid accumulation in the intestinal lumen.

T1 sequence (P25092 24-1073): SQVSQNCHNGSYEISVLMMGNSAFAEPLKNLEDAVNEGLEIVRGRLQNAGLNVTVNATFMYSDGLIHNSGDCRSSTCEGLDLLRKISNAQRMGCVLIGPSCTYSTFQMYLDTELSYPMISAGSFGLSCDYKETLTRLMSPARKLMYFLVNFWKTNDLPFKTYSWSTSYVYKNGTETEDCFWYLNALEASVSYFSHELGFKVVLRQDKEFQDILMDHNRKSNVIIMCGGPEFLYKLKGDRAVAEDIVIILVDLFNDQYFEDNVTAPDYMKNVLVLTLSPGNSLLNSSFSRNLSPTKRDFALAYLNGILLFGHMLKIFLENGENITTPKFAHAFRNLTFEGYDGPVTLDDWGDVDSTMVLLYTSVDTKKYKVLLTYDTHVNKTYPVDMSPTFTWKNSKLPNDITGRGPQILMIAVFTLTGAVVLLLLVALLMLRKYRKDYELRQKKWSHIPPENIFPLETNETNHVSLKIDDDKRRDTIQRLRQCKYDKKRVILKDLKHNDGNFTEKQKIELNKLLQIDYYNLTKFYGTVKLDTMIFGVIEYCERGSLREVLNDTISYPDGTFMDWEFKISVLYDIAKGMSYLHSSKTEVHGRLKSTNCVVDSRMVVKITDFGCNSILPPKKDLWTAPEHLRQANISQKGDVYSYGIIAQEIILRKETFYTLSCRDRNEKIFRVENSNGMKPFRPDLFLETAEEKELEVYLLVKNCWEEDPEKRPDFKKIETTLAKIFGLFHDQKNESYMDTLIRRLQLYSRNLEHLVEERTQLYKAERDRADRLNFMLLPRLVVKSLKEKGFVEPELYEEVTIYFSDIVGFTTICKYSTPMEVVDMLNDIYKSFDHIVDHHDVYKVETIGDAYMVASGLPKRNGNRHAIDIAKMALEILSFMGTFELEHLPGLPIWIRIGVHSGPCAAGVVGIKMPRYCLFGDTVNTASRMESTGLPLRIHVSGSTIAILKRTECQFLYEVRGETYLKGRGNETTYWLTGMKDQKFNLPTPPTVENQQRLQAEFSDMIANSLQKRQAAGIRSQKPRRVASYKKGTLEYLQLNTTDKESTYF

Cn1c2c(c(=O)n(C)c1=O)C(c1cccc(Br)c1)C1=C(N2)c2ccccc2C1=O (stereo not shown) [compound IIb]
IC50 [1]: 7.2 µM
inhibition at 50 µM ([1]; T84, read-out: inhibition of guanylin-induced cyclic GMP): 58.9%
level of cyclic GMP ([1]; T84 cells, 500 nM guanylin, 50 μM compound, vehicle 124±13): 51±6 pmol/mg protein
IC50 [2]: ~5 µM
inhibition of STa-induced activation of GC-C (FIG. 2) [3]: inhibition
inhibition at 50 µM ([3]; 100 nM STa, 50 μM compound): 84.7%
level of cyclic GMP ([3]; 100 nM STa, 50 μM compound, vehicle 124±10, basal 6±2): 24±6 pmol/mg protein
IC50 ([3]; 100 nM STa, read-out: IC50, inhibition of cyclic GMP synthesis): 3.4 µM
STa concentration-dependent accumulation of cyclic GMP ([3]; increasing STa 1 nM to 5 μM, 50 μM compound): significantly suppressed
inhibition of cyclic GMP accumulation (FIG. 6) [4]: inhibition
IC50 [5]: 11.2 µM
liquid accumulation (volume per loop length) ([6]; rabbit loops injected with 100 nM STa and 50 μM compound, STa+vehicle 0.62±0.05, PBS 0.18±0.03): 0.15 ± 0.06 mL/cm
inhibition of STa-stimulated liquid accumulation ([6]; rabbit loops, 100 nM STa, 50 μM compound): completely
